The values below are quoted from earlier work in US20110262540A1, “Solid Pharmaceutical Composition Comprising Exemestane” (ARROW INTERNATIONAL LIMITED, priority 2008, published 2011).

As for `C=C1C[C@@H]2[C@H](CC[C@]3(C)C(=O)CC[C@@H]23)[C@@]2(C)C=CC(=O)C=C12` [Exemestane, 6-methylenandrosta-1,4-diene-3,17-dione], the Solubility in water entry is “practically insoluble in water”.
